Values quoted from earlier work in patent US12447190B1, “Vasopressin premix systems and uses thereof” (Baxter International Inc., priority 2023, dated 2025).

Experiments:
[1] = system: patients with vasodilatory shock

Q: What does the source list for `NC(=O)CC[C@@H]1NC(=O)[C@H](Cc2ccccc2)NC(=O)[C@H](Cc2ccc(O)cc2)NC(=O)[C@@H](N)CSSC[C@@H](C(=O)N2CCC[C@H]2C(=O)N[C@@H](CCCN=C(N)N)C(=O)NCC(N)=O)NC(=O)[C@H](CC(N)=O)NC1=O` [vasopressin, Cyclo (1-6) L-Cysteinyl-L-Tyrosyl-L-Phenylalanyl-L-Glutaminyl-L-Asparaginyl-L-Cysteinyl-L-Prolyl-L-Arginyl-L-Glycinamide]?
A: time to steady state plasma concentrations (continuous intravenous infusion): 30 min; vasopressin plasma concentrations versus infusion rate (infusion rates from 10 to 200 U/kg/min): increases linearly; time for pressor effect to fade ([1]; after stopping the infusion): ≤ 20 min; time for pressor effect to reach its peak ([1]; infusion in patients): ≤ 15 min
